Assay results reported in PMC8424372 (Journal of Pharmaceutical Analysis, 2020).
Like-named read-outs stand apart in the source and are kept apart here.

Experiments:
[1] = assay type: in vivo, human; settings: for Shape of plasma concentration-time profile: after oral Gumiganghwal-tang tablets (9.6 g), humans; for AUC(0-inf) / Cmax / Tmax / half-life / Vd/F: male, human, po, 9.6 g; for Detection in human plasma: after oral Gumiganghwal-tang tablets at maximum daily dose (9.6 g)
[2] = Freeze-thaw stability in human plasma; assay type: in vitro ADME; settings: −80 °C/25 °C, mean ± SD, n = 5, %

Row | SMILES | Shape of plasma concentration-time profile [1] | AUC(0-inf) ([1]; plasma) [ng·h/mL] | Cmax ([1]; plasma) [ng/mL] | Tmax ([1]; plasma) [h] | half-life ([1]; plasma) [h] | Freeze-thaw stability (3 cycles) ([2]; spiked conc. 2 ng/mL) [%] | Freeze-thaw stability (3 cycles) ([2]; spiked conc. 400 ng/mL) [%] | Detection in human plasma [1] | also measured
1 | CC1(C)[C@@H](O)CC[C@]2(C)[C@H]3C(=O)C=C4[C@@H]5C[C@@](C)(C(=O)O)CC[C@]5(C)CC[C@@]4(C)[C@]3(C)CC[C@@H]12 [18-beta-glycyrrhetinic acid] | double peaks | 988 ± 125 | 89.7 ± 14.4 | 6.42 ± 1.01 | 12.1 ± 2.28 |  |  |  | 
2 | C=C1CCC[C@]2(C)C[C@]3(O)OC(=O)C(C)=C3C[C@@H]12 [Atractylenolide III, atractylenolide III] | double peaks | 417 ± 99.3 | 17.5 ± 5.6 | 4.33 ± 1.21 | 24.2 ± 5.29 | 99.57 ± 2.04 | 96.73 ± 4.82 |  | Vd/F ([1]; plasma): 26.2 ± 6.26 L
3 | OCC1=C[C@@H](O)[C@@H]2C=CO[C@@H](O[C@@H]3O[C@H](CO)[C@@H](O)[C@H](O)[C@H]3O)[C@H]12 [Aucubin, aucubin] |  |  |  |  |  | 97.78 ± 4.39 |  | not detected | Freeze-thaw stability (3 cycles) ([2]; spiked conc. 500 ng/mL): 100.15 ± 2.79%
4 | O=c1cc(-c2ccccc2)oc2cc(O)c(O)c(O)c12 [Baicalein, baicalein] | double peaks | 540 ± 122 | 52.6 ± 21.2 | 0.78 ± 0.23 | 7.78 ± 1.91 | 96.92 ± 5.31 | 100.00 ± 2.30 |  | 
5 | O=C(O)[C@H]1O[C@@H](Oc2cc3oc(-c4ccccc4)cc(=O)c3c(O)c2O)[C@H](O)[C@@H](O)[C@@H]1O [Baicalin, baicalin] | double peaks |  |  |  |  | 99.53 ± 2.03 | 97.95 ± 3.22 |  | AUC(0-inf) ([1]; in vivo): 805000 ± 121000 ng·h/mL; Cmax ([1]; in vivo): 34300 ± 5220 ng/mL; Tmax ([1]; in vivo): 7.99 ± 1.52 h; Vd/F ([1]; in vivo): 2.5 ± 0.21 L; half-life ([1]; in vivo): 14.4 ± 3.98 h
6 | CC(C)=CCOc1c2occc2cc2ccc(=O)oc12 [Imperatorin, imperatorin] |  |  |  |  |  | 98.44 ± 2.60 | 101.28 ± 2.93 | not detected | 
7 | O=c1ccc2cc3ccoc3c(O)c2o1 [Xanthotoxol, xanthotoxol] | double peaks | 110 ± 38.6 | 3.78 ± 1.39 | 4.48 ± 1.76 | 8.98 ± 3.01 | 102.24 ± 4.31 | 98.83 ± 2.95 |  | 

Second part, led by results:

Row | Shape of plasma concentration-time profile [1] | AUC(0-inf) ([1]; plasma) [ng·h/mL] | Cmax ([1]; plasma) [ng/mL] | Tmax ([1]; plasma) [h] | half-life ([1]; plasma) [h] | Freeze-thaw stability (3 cycles) ([2]; spiked conc. 2 ng/mL) [%] | Freeze-thaw stability (3 cycles) ([2]; spiked conc. 400 ng/mL) [%] | Detection in human plasma [1] | SMILES | also measured
8 |  |  |  |  |  | 101.28 ± 2.95 |  | not detected | OC[C@H]1O[C@@H](O[C@@H]2OC=C[C@H]3[C@H](O)[C@@H]4O[C@]4(CO)[C@@H]23)[C@H](O)[C@@H](O)[C@@H]1O [Catalpol, catalpol] | Freeze-thaw stability (3 cycles) ([2]; spiked conc. 500 ng/mL): 100.03 ± 2.84%
9 | double peaks | 67.6 ± 15.3 | 2.16 ± 1.04 | 8.04 ± 1.16 | 28.8 ± 4.24 | 97.58 ± 4.38 | 99.43 ± 2.90 |  | CC1(C)[C@@H](O[C@H]2O[C@H](C(=O)O)[C@@H](O)[C@H](O)[C@H]2O[C@@H]2O[C@H](C(=O)O)[C@@H](O)[C@H](O)[C@H]2O)CC[C@]2(C)[C@H]3C(=O)C=C4[C@@H]5C[C@@](C)(C(=O)O)CC[C@]5(C)CC[C@@]4(C)[C@]3(C)CC[C@@H]12 [Glycyrrhizin, glycyrrhizin] | Vd/F ([1]; plasma): 5860 ± 1090 L
10 |  |  |  |  |  |  | 101.10 ± 2.84 | not detected | C=CCc1ccc(OC)c(OC)c1 [Methyl eugenol, methyl eugenol] | Freeze-thaw stability (3 cycles) ([2]; spiked conc. 5 ng/mL): 98.48 ± 2.51%
11 |  |  |  |  |  | 97.79 ± 3.42 | 99.46 ± 2.59 | not detected | CC(C)=CC(O)C/C(C)=C/COc1c2ccoc2cc2oc(=O)ccc12 (stereo not drawn) [Notopterol, notopterol] | 
12 | double peaks | 449 ± 103 | 4.46 ± 1.29 | 8.25 ± 2.07 | 70.5 ± 10.6 | 100.16 ± 1.88 | 99.31 ± 2.36 |  | CC1(C)O[C@H]1COc1c2ccoc2cc2oc(=O)ccc12 [Oxypeucedanin, oxypeucedanin] | Vd/F ([1]; plasma): 275 ± 56.4 L
